How the values were obtained:
Rattus norvegicus [1] = assay: Analgesic activity in Sprague-Dawley rat brewer's yeast treated foot assessed as response threshold at 32 mg/kg, po; type: functional
Rattus norvegicus [2] = assay: Analgesic activity in Sprague-Dawley rat normal foot assessed as response threshold at 32 mg/kg, po; type: functional

Row | Compound | Activity (Rattus norvegicus [1]) | Activity (Rattus norvegicus [2])
1 | COc1ccc(OC)c(-n2c(=O)[nH]c3cccnc32)c1 | <25 mm | <40 mm
2 | C=CCn1c(=O)n(-c2cccc(Cl)c2C)c2ncccc21 | <25 mm | <40 mm
3 | COC(=O)c1cnc2c(c1)[nH]c(=O)n2-c1ccccc1F | <25 mm | <40 mm
4 | CN(C)c1ccc(-n2nnc3cccnc32)cc1 | <25 mm | <40 mm
5 | Cc1cc2c(cc1-n1c(=O)[nH]c3cccnc31)OCO2 | <25 mm | <40 mm
6 | C=CCn1c(=O)n(-c2ccc3c(c2)CCC3)c2ncccc21 | <25 mm | <40 mm
7 | O=c1[nH]c2cccnc2n1-c1cccc(C(F)(F)F)c1 | <25 mm | <40 mm
8 | COc1cc(-n2nnc3cccnc32)ccc1C | <25 mm | <40 mm
9 | Cc1ccc(-n2nnc3cccnc32)cc1C | <25 mm | <40 mm
10 | O=c1[nH]c2cncnc2n1-c1ccccc1F | <25 mm | <40 mm
11 | S=c1[nH]c2cccnc2n1-c1ccc2c(c1)OCO2 | <25 mm | <40 mm
12 | O=c1n(CCC2CCCCC2)c2cccnc2n1-c1ccc2c(c1)OCO2 | <25 mm | <40 mm
13 | COc1cccc(-n2c(=O)[nH]c3cccnc32)c1 | <25 mm | <40 mm
14 | Fc1ccccc1Cn1nnc2cccnc21 | <25 mm | <40 mm
15 | CCOCn1c(=O)n(-c2ccc3c(c2)OCO3)c2ncccc21 | <25 mm | <40 mm
16 | Cc1ccc(-n2nnc3cccnc32)cc1 | <25 mm | <40 mm
17 | O=c1[nH]c2cccnc2n1-c1ccc2c(c1)OC1(CCCCC1)O2 | <25 mm | <40 mm
18 | CCC1(CC)Oc2ccc(-n3nnc4cccnc43)cc2O1 | <25 mm | <40 mm
19 | Nc1cnc2c(c1)[nH]c(=O)n2-c1ccccc1F | <25 mm | <40 mm
20 | C=C(C)Cn1c(=O)n(-c2ccc3c(c2)OCO3)c2ncccc21 | <25 mm | <40 mm
21 | Cc1cccc(-n2nnc3cccnc32)n1 | <25 mm | <40 mm
22 | Cc1oc2ccc(-n3c(=O)[nH]c4cccnc43)cc2c1C | <25 mm | <40 mm

Row | Compound | Activity (Rattus norvegicus [1]) | Activity (Rattus norvegicus [2])
23 | C#CCn1c(=O)n(-c2ccc3c(c2)OCO3)c2ncccc21 | <25 mm | <40 mm
24 | O=c1[nH]c2cccnc2n1-c1cc(F)ccc1F | <25 mm | <40 mm
25 | O=c1[nH]c2cc([N+](=O)[O-])cnc2n1-c1ccccc1F | <25 mm | <40 mm
26 | CCOC(=O)n1c(=O)n(-c2ccc3c(c2)OCO3)c2ncccc21 | <25 mm | <40 mm
27 | COC(=O)c1cnc2c(c1)nnn2-c1ccc2c(c1)OCO2 | <25 mm | <40 mm
28 | NC(=O)c1cccc(-n2nnc3cccnc32)c1 | 25 mm | <40 mm
29 | Cc1c(Cl)cccc1-n1c(=O)[nH]c2cccnc21 | <25 mm | <40 mm
30 | COc1ccccc1-n1nnc2cccnc21 | 25 mm | <40 mm
31 | C=CCn1c(=O)n(-c2ccc3c(c2)OCO3)c2ccccc21 | <25 mm | <40 mm
32 | Cc1ccc(F)c(-n2nnc3cccnc32)c1 | <25 mm | <40 mm
33 | CC(=O)OCCn1c(=O)n(-c2ccc3c(c2)OCO3)c2ncccc21 | 25 mm | <40 mm
34 | O=c1[nH]c2cccnc2n1Cc1ccc2c(c1)OCO2 | <25 mm | <40 mm
35 | c1cnc2c(c1)nnn2-c1ccc2c(c1)COCO2 | <25 mm | <40 mm
36 | COc1ccc(OC)c(-n2nnc3cccnc32)c1 | <25 mm | <40 mm
37 | COc1cc(-n2nnc3cccnc32)cc(OC)c1OC | <25 mm | <40 mm
38 | COc1ccc(-n2c(=O)[nH]c3cccnc32)c(OC)c1 | <25 mm | <40 mm
39 | O=c1[nH]c2cccnc2n1-c1ccc(Cl)c(Cl)c1 | <25 mm | <40 mm
40 | Cc1cnc2c(c1)nnn2-c1ccccc1F | <25 mm | <40 mm
41 | COc1ccc(-n2c(=O)[nH]c3cccnc32)cc1OC | <25 mm | <40 mm
42 | O=c1[nH]c2cccnc2n1-c1cccc(Oc2ccccc2)c1 | <25 mm | <40 mm
43 | O=c1n(-c2ccc3c(c2)OCO3)c2ncccc2n1S(=O)(=O)c1ccc(F)cc1 | <25 mm | <40 mm
44 | CC(C)c1ccccc1-n1nnc2cccnc21 | 25 mm | <40 mm

Row | Compound | Activity (Rattus norvegicus [1]) | Activity (Rattus norvegicus [2])
45 | Clc1ccc2nnn(-c3ccccc3)c2n1 | <25 mm | <40 mm
46 | CCC1(CC)Oc2ccc(-n3c(=O)[nH]c4cccnc43)cc2O1 | <25 mm | <40 mm
47 | C=CCn1c(=O)n(-c2cccc(C)n2)c2ncccc21 | <25 mm | <40 mm
48 | C=CCn1c(=O)n(-c2ccc3c(c2)OCO3)c2ncncc21 | <25 mm | <40 mm
49 | O=C(O)c1cnc2c(c1)[nH]c(=O)n2-c1ccccc1F | <25 mm | <40 mm
50 | C=CCn1c(=O)n(-c2cccc3c2OCO3)c2ncccc21 | <25 mm | <40 mm
51 | C=CCn1c(=O)n(-c2ccc(C)c(OC)c2)c2ncccc21 | <25 mm | <40 mm
52 | c1cnc2c(c1)nnn2-c1ccc2c(c1)CCC2 | <25 mm | <40 mm
53 | Cc1cc2c(cc1-n1nnc3cccnc31)OCO2 | <25 mm | <40 mm
54 | CCOC(=O)c1cccc(-n2c(=O)[nH]c3cccnc32)c1 | <25 mm | <40 mm
55 | O=C(O)c1ccc(-n2nnc3cccnc32)cc1 | <25 mm | <40 mm
56 | Cc1cccc(C)c1-n1nnc2cccnc21 | 25 mm | <40 mm
57 | CN(C)c1ccccc1-n1c(=O)[nH]c2cccnc21 | <25 mm | <40 mm
58 | CCCCCCn1c(=O)n(-c2ccc3c(c2)OCO3)c2ncccc21 | 25 mm | <40 mm
59 | COc1ccc(-n2nnc3cccnc32)cc1 | <25 mm | <40 mm
60 | O=c1[nH]c2cccnc2n1-c1ccc(Oc2ccccc2)cc1 | <25 mm | <40 mm
61 | Clc1ccccc1-n1nnc2cccnc21 | 25 mm | <40 mm
62 | Cc1c(Cl)cccc1-n1nnc2cccnc21 | <25 mm | <40 mm
63 | C=CCn1c(=O)n(-c2ccc3c(c2)COCO3)c2ncccc21 | <25 mm | <40 mm
64 | CSCn1c(=O)n(-c2ccccc2)c2ncccc21 | 25 mm | <40 mm
65 | O=c1[nH]c2cncnc2n1-c1ccc2c(c1)OCO2 | <25 mm | <40 mm
